Measurements reported in US20180162862A1 (President and Fellows of Harvard College, priority 2015, published 2018).
In brackets after ≈: the same amount, converted by molar mass. Like-named read-outs stand apart in the source and are kept apart here.

What was measured:
S. aureus ATCC 29213 = experiment: MIC test according to CLSI M7-A9, S. aureus ATCC 29213; type: cell-based; settings: Staphylococcus aureus, read-out: S. aureus ATCC 29213 MIC at 24 h
Description: (§1) MIC Test (S. aureus ATCC 29213, S. aureus ATCC 43300 and S. aureus Newman)
(§2) Susceptibility testing of S. aureus ATCC 29213, ATCC 43300 and Newman was performed according to Clinical Laboratory Standard Institute (CLSI) guidelines M7-A9. Test articles were stored at room temperature prior to use, then dissolved in filtered sterile DMSO. Stock DMSO solutions were diluted further in cation-adjusted Mueller Hinton broth (CAMHB) to provide appropriate test concentrations. Cultures of S. aureus (ATCC 29213, ATCC 43300 or Newman) were added in accordance with CLSI guidelines and plates incubated at 37° C. in air for 24 h. Endpoints were determined visually (and by spectrophotometer at 600 nm) and the minimum inhibitory concentration (MIC) defined as the lowest concentration of test articles resulting in complete inhibition of visible bacterial growth. Results are detailed in Table 2 (S. aureus ATCC 29213 and ATCC 43300) and Table 3 (S. aureus ATCC 29213, ATCC 43300 and Newman).

S. aureus ATCC 43300 = experiment: MIC test according to CLSI M7-A9, S. aureus ATCC 43300; type: cell-based; settings: Staphylococcus aureus, read-out: S. aureus ATCC 43300 MIC at 24 h
Description: as §1, §2

[1] = ATCC29213, CLSI M7-A9, CAMHB, 24 h (Table 2)
[2] = ATCC43300, CLSI M7-A9, CAMHB, 24 h (Table 2)

SMILES | MIC (S. aureus ATCC 29213; [1]) | MIC (S. aureus ATCC 43300; [2]) | MIC (S. aureus ATCC 29213; ATCC29213, 24 h) | MIC (S. aureus ATCC 43300; ATCC43300, 24 h)
Cc1ccc(S(=O)(=O)CCCNc2nc(-c3ccc(C(C)(C)C)cc3)nc3cc(=O)[nH]n23)cc1C [Example 58, 2-(4-tert-butylphenyl)-4-{[3-(3,4-dimethylbenzenesulfonyl)propyl]amino}-6H,7H-pyrazolo[1,5-a][1,3,5]triazin-7-one] | 64 µg/mL (≈ 130 µM) | 64 µg/mL (≈ 130 µM) | – | –
Cc1cc(NCC(F)CNc2nc(-c3ccc(C(C)(C)C)cc3)nc3cc(=O)[nH]n23)ccc1Cl (stereo not shown) [Example 66, 2-(4-tert-butylphenyl)-4-({3-[(4-chloro-3-methylphenyl)amino]-2-fluoropropyl}amino)-6H,7H-pyrazolo[1,5-a][1,3,5]triazin-7-one] | 4 µg/mL (≈ 8.28 µM) | 2 µg/mL (≈ 4.14 µM) | – | –
CC(C)(C)c1ccc(-c2nc(NCCCn3ccnc3)n3[nH]c(=O)cc3n2)cc1 [Example 24, 2-(4-tert-butylphenyl)-4-{[3-(1H-imidazol-1-yl)propyl]amino}-6H,7H-pyrazolo[1,5-a][1,3,5]triazin-7-one] | – | – | 64 µg/mL (≈ 163 µM) | 64 µg/mL (≈ 163 µM)
CC(C)(C)c1ccc(-c2nc(NCC(O)CNC3CCCCC3)n3[nH]c(=O)cc3n2)cc1 (stereo not shown) [Example 61, 2-(4-tert-butylphenyl)-4-{[3-(cyclohexylamino)-2-hydroxypropyl]amino}-6H,7H-pyrazolo[1,5-a][1,3,5]triazin-7-one] | 32 µg/mL (≈ 73 µM) | 32 µg/mL (≈ 73 µM) | – | –
Cc1cc(NCC2CN(c3nc(-c4ccc(C(C)(C)C)cc4)nc4cc(=O)[nH]n34)C2)ccc1Cl [Example 57, 2-(4-tert-butylphenyl)-4-(3-{[(4-chloro-3-methylphenyl)amino]methyl}azetidin-1-yl)-6H,7H-pyrazolo[1,5-a][1,3,5]triazin-7-one] | 4 µg/mL (≈ 8.39 µM) | 8 µg/mL (≈ 16.8 µM) | – | –
Cc1cc(OCC(O)CNc2nc(-c3ccc(C(C)(C)C)cc3)nc3cc(=O)[nH]n23)ccc1Cl (stereo not shown) [Example 60, 2-(4-tert-butylphenyl)-4-{[3-(4-chloro-3-methylphenoxy)-2-hydroxypropyl]amino}-6H,7H-pyrazolo[1,5-a][1,3,5]triazin-7-one] | 4 µg/mL (≈ 8.3 µM) | 8 µg/mL (≈ 16.6 µM) | – | –
Cc1ccc(-c2nc(NCCCOc3ccc(Cl)c(C)c3)n3[nH]c(=O)cc3n2)cc1 [Example 67, 4-{[3-(4-chloro-3-methylphenoxy)propyl]amino}-2-(4-methylphenyl)-6H,7H-pyrazolo[1,5-a][1,3,5]triazin-7-one] | > 64 µg/mL | > 64 µg/mL | – | –
Cc1cc(OCCC(C)Nc2nc(-c3ccc(C(C)(C)C)cc3)nc3cc(=O)[nH]n23)ccc1Cl (stereo not shown) [Example 65, 2-(4-tert-butylphenyl)-4-{[4-(4-chloro-3-methylphenoxy)butan-2-yl]amino}-6H,7H-pyrazolo[1,5-a][1,3,5]triazin-7-one] | 4 µg/mL (≈ 8.33 µM) | 4 µg/mL (≈ 8.33 µM) | – | –
Cc1cc(OCCCNc2nc(-c3ccc(C(C)(C)C)cc3)nc3c(F)c(=O)[nH]n23)ccc1Cl [Example 71, 2-(4-tert-butylphenyl)-4-{[3-(4-chloro-3-methylphenoxy)propyl]amino}-8-fluoro-6H,7H-pyrazolo[1,5-a][1,3,5]triazin-7-one] | 8 µg/mL (≈ 16.5 µM) | 8 µg/mL (≈ 16.5 µM) | – | –
CC(C)(C)c1ccc(-c2nc(NCCCN3Cc4ccccc4C3)n3[nH]c(=O)cc3n2)cc1 [Example 44, 2-(4-tert-butylphenyl)-4-{[3-(2,3-dihydro-1H-isoindol-2-yl)propyl]amino}-6H,7H-pyrazolo[1,5-a][1,3,5]triazin-7-one] | 64 µg/mL (≈ 145 µM) | > 128 µg/mL | – | –
CC(C)(C)c1ccc(-c2nc(NCCCNC3Cc4ccccc4C3)n3[nH]c(=O)cc3n2)cc1 [Example 42, 2-(4-tert-butylphenyl)-4-({3-[(2,3-dihydro-1H-inden-2-yl)amino]propyl}amino)-6H,7H-pyrazolo[1,5-a][1,3,5]triazin-7-one] | 8 µg/mL (≈ 17.5 µM) | 8 µg/mL (≈ 17.5 µM) | – | –
CC(C)(C)c1ccc(-c2nc(NC3CCN(C(=O)c4ccccc4)CC3)n3[nH]c(=O)cc3n2)cc1 [Example 63, 4-[(1-benzoylpiperidin-4-yl)amino]-2-(4-tert-butylphenyl)-6H,7H-pyrazolo[1,5-a][1,3,5]triazin-7-one] | 32 µg/mL (≈ 68 µM) | 128 µg/mL (≈ 272 µM) | – | –
CC(C)(C)c1ccc(-c2nc(N3CCC(OCc4ccccc4)CC3)n3[nH]c(=O)cc3n2)cc1 [Example 21, 4-[4-(benzyloxy)piperidin-1-yl]-2-(4-tert-butylphenyl)-6H,7H-pyrazolo[1,5-a][1,3,5]triazin-7-one] | 32 µg/mL (≈ 69.9 µM) | > 128 µg/mL | – | –
CC(C)(C)c1ccc(-c2nc(NC3CCN(C(=O)c4nnc[nH]4)CC3)n3[nH]c(=O)cc3n2)cc1 [Example 64, 2-(4-tert-butylphenyl)-4-{[11-(4H-1,2,4-triazole-3-carbonyl)piperidin-4-yl]amino}-6H,7H-pyrazolo[1,5-a][1,3,5]triazin-7-one] | 128 µg/mL (≈ 277 µM) | > 128 µg/mL | – | –
Cc1ncc(CN2CCC(Nc3nc(-c4ccc(C(C)(C)C)cc4)nc4cc(=O)[nH]n34)CC2)[nH]1 [Example 55, 2-(4-tert-butylphenyl)-4-({1-[(2-methyl-1H-imidazol-5-yl)methyl]piperidin-4-yl}amino)-6H,7H-pyrazolo[1,5-a][1,3,5]triazin-7-one] | 32 µg/mL (≈ 69.5 µM) | 32 µg/mL (≈ 69.5 µM) | – | –

More lines, main results first:

MIC (S. aureus ATCC 29213; [1]) | MIC (S. aureus ATCC 43300; [2]) | SMILES | MIC (S. aureus ATCC 29213; ATCC29213, 24 h) | MIC (S. aureus ATCC 43300; ATCC43300, 24 h)
64 µg/mL (≈ 181 µM) | 32 µg/mL (≈ 90.3 µM) | CN(C)CCNc1nc(-c2ccc(C(C)(C)C)cc2)nc2cc(=O)[nH]n12 [Example 25, 2-(4-tert-butylphenyl)-4-{[2-(dimethylamino)ethyl]amino}-6H,7H-pyrazolo[1,5-a][1,3,5]triazin-7-one] | – | –
128 µg/mL (≈ 301 µM) | 128 µg/mL (≈ 301 µM) | CC(C)(C)c1ccc(-c2nc(NCCCN3CCC(O)CC3)n3[nH]c(=O)cc3n2)cc1 [Example 40, 2-(4-tert-butylphenyl)-4-{[3-(4-hydroxypiperidin-1-yl)propyl]amino}-6H,7H-pyrazolo[1,5-a][1,3,5]triazin-7-one] | – | –
8 µg/mL (≈ 19.2 µM) | 8 µg/mL (≈ 19.2 µM) | CC(C)(C)c1ccc(-c2nc(NCCCOc3ccccc3)n3[nH]c(=O)cc3n2)cc1 [Example 33, 2-(4-tert-butylphenyl)-4-[(3-phenoxypropyl)amino]-6H,7H-pyrazolo[1,5-a][1,3,5]triazin-7-one] | – | –
32 µg/mL (≈ 75.7 µM) | 32 µg/mL (≈ 75.7 µM) | CC(C)(C)c1ccc(-c2nc(NCCCNC3CCCCC3)n3[nH]c(=O)cc3n2)cc1 [Example 39, 2-(4-tert-butylphenyl)-4-{[3-(cyclohexylamino)propyl]amino}-6H,7H-pyrazolo[1,5-a][1,3,5]triazin-7-one] | – | –
> 32 µg/mL | 32 µg/mL (≈ 103 µM) | CN(C)c1nc(-c2ccc(C(C)(C)C)cc2)nc2cc(=O)[nH]n12 [Example 32, 2-(4-tert-butylphenyl)-4-(dimethylamino)-6H,7H-pyrazolo[1,5-a][1,3,5]triazin-7-one] | – | –
> 64 µg/mL | > 64 µg/mL | CC(C)(C)c1ccc(-c2nc(NCCCn3ccncc3=O)n3[nH]c(=O)cc3n2)cc1 [Example 51, 1-(3-{[2-(4-tert-butylphenyl)-7-oxo-6H,7H-pyrazolo[1,5-a][1,3,5]triazin-4-yl]amino}propyl)-1,2-dihydropyrazin-2-one] | – | –
128 µg/mL (≈ 312 µM) | 128 µg/mL (≈ 312 µM) | CC(C)(C)c1ccc(-c2nc(NCCCN3CCOCC3)n3[nH]c(=O)cc3n2)cc1 [Example 41, 2-(4-tert-butylphenyl)-4-{[3-(morpholin-4-yl)propyl]amino}-6H,7H-pyrazolo[1,5-a][1,3,5]triazin-7-one] | – | –
16 µg/mL (≈ 45.3 µM) | 16 µg/mL (≈ 45.3 µM) | CCCCN(C)c1nc(-c2ccc(C(C)(C)C)cc2)nc2cc(=O)[nH]n12 [Example 34, 4-[butyl(methyl)amino]-2-(4-tert-butylphenyl)-6H,7H-pyrazolo[1,5-a][1,3,5]triazin-7-one] | – | –
8 µg/mL (≈ 21.9 µM) | 8 µg/mL (≈ 21.9 µM) | CC(C)(C)c1ccc(-c2nc(NC3CCCCC3)n3[nH]c(=O)cc3n2)cc1 [Example 36, 2-(4-tert-butylphenyl)-4-(cyclohexylamino)-6H,7H-pyrazolo[1,5-a][1,3,5]triazin-7-one] | – | –
> 32 µg/mL | > 32 µg/mL | CC(C)(C)c1ccc(-c2nc(NCCCOc3cnccn3)n3[nH]c(=O)cc3n2)cc1 [Example 50, 2-(4-tert-butylphenyl)-4-{[3-(pyrazin-2-yloxy)propyl]amino}-6H,7H-pyrazolo[1,5-a][1,3,5]triazin-7-one] | – | –
64 µg/mL (≈ 174 µM) | 128 µg/mL (≈ 348 µM) | CC(C)(C)c1ccc(-c2nc(N3CCC(O)CC3)n3[nH]c(=O)cc3n2)cc1 [Example 20, 2-(4-tert-butylphenyl)-4-(4-hydroxypiperidin-1-yl)-6H,7H-pyrazolo[1,5-a][1,3,5]triazin-7-one] | – | –
32 µg/mL (≈ 90 µM) | 32 µg/mL (≈ 90 µM) | CC(C)(O)CNc1nc(-c2ccc(C(C)(C)C)cc2)nc2cc(=O)[nH]n12 [Example 26, 2-(4-tert-butylphenyl)-4-[(2-hydroxy-2-methylpropyl)amino]-6H,7H-pyrazolo[1,5-a][1,3,5]triazin-7-one] | – | –
8 µg/mL (≈ 19.2 µM) | 8 µg/mL (≈ 19.2 µM) | CC(C)(C)c1ccc(-c2nc(NCCCNc3ccccc3)n3[nH]c(=O)cc3n2)cc1 [Example 43, 2-(4-tert-butylphenyl)-4-{[3-(phenylamino)propyl]amino}-6H,7H-pyrazolo[1,5-a][1,3,5]triazin-7-one] | – | –
64 µg/mL (≈ 175 µM) | 64 µg/mL (≈ 175 µM) | CN1CCN(c2nc(-c3ccc(C(C)(C)C)cc3)nc3cc(=O)[nH]n23)CC1 [Example 18, 2-(4-tert-butylphenyl)-4-(4-methylpiperazin-1-yl)-6H,7H-pyrazolo[1,5-a][1,3,5]triazin-7-one] | – | –
